Laboratory results published in patent publication US20060041962A1, “Genes and uses thereof to modulate secondary metabolite biosynthesis” (priority 2002, published 2006).

Experiments:
[1] = tested on: NsPMT2 promoter; assay: NsPMT2 promoter EGFP-GUS reporter in transgenic BY-2 cell line 7 (GUS activity); assay type: cell-based, Nicotiana sylvestris
Text: The PMT gene encodes the enzyme putrescine N-methyltransferase, catalysing the first committed step in the production of nicotinic alkaloids. Transcripts of Nicotiana sp. PMT genes are reported to be up regulated by methyl jasmonate. […] We have applied this knowledge and constructed a new reporter construct, called pHGWFS7-ppmt2, harbouring a EGFP-GUS fusion reporter gene (in Gateway® vector pHGWFS7; Karimi et al., Trends Plant Sci. 2002, 7(5):193-195), driven by the NsPMT2 promoter. To this end, primers were designed for the Adapter attB PCR protocol (InVitroGen) to amplify the NsPMT2 5′flanking region covering nucleotides −1713 to +3 (Table 3).
The pHGWFS7-ppmt2 construct was subsequently introduced in the ternary Agrobacterium tumefaciens transformation system, LBA4404.pBBR1-MCS-5.virGN54D (van der Fits et al., Plant Mol. Biol. 2000, 43(4):495-502), allowing efficient transformation of tobacco BY-2 cell cultures. Different independent transgenic lines were established and the jasmonate inducibility of the promoter in these transgenic BY-2 cells was confirmed (Table 4).
To illustrate the potential of this approach, BY-2-pmt2 cell line 7 was double transformed with the pK7WGD2-C330 construct, harbouring the MJM tag with SEQ ID No 148, an AP2-domain transcription factor encoding gene (also designated as C330 in this application), driven by the constitutive p35S promoter.

[2] = tested on: tobacco BY-2 cells; assay: cDNA-AFLP transcript profiling of jasmonate-elicited BY-2 cells; assay type: cell-based, Nicotiana tabacum; conditions: 50 μM methyl jasmonate vs DMSO-treated cells, approximately 20,000 tags analyzed
Procedure: Total RNA was prepared by LiCl precipitation (Sambrook, 1989). Starting from 5 μg total RNA, first-strand cDNA was synthesized by reverse transcription with a biotinylated oligo-dT25 primer (Genset, Paris, France) and Superscript II (Life Technologies, Gaithersburg, Md.). Second-strand synthesis was performed by strand displacement with Escherichia coli ligase (Life Technologies), DNA polymerase I (USB, Cleveland, Ohio) and RNAse-H (USB).
500 nanograms of double-stranded cDNA was used for AFLP analysis as described (Vos et al., 1995; Bachem et al., 1996) with modifications. The restriction enzymes used were BstYI and MseI (Biolabs) and the digestion was performed in two separate steps. […]
Scanned gel images were quantitatively analyzed using the AFLP QuantarPro image analysis software (Keygene N. V., Wageningen, N L). This software was designed for accurate lane definition, fragment detection, and quantification of band intensities. All visible AFLP fragments were scored and individual band intensities in each lane were measured. […] The correction factors were calculated based on constant bands throughout the time course. […] A coefficient of variation (CV) was calculated by dividing […]. […]

[3] = tested on: BY-2 reporter cell line (line 7); assay: Nicotine alkaloid content of BY-2 reporter cell line super-transformed with C330; assay type: cell-based, Nicotiana tabacum; conditions: line 7 + C330 vector, −2,4D + MeJA
Procedure: In a next step, we evaluated if there was a correlation between the GUS-activity in the BY-2 reporter cell line and nicotine alkaloid accumulation. […] Measurements in tables 6A and 6B were carried out in the presence or absence of synthetic auxins. “−2,4 D” means in the absence of dichlorophenoxy-acetic acid. “NAA” means in the presence of alfa-naphtalene-acetic acid. “DW” means dry weight, “MeJA” is with the addition of the elicitor methyl jasmonate, “DMSO” means with the addition of dimethylsulfoxide instead of MeJA.
(§1) Nicotiana tabacum BY-2 cells were cultured in modified Linsmaier-Skoog (LS) medium (Linsmaier & Skoog, 1965), as described by Nagata & Kumagai (1999). First, the growth curve of BY-2 cell culture was determined (FIG. 2) and the late exponential phase was used in elicitation experiments. Since the ability of high auxin concentration to inhibit the biosynthesis of nicotine is well known (Hibi et al., 1994; Ishikawa, et al., 1994), the six-day-old culture was prior elicitation washed and diluted 10-fold with fresh hormone free medium. After 12 hours, the cells were treated with methyl jasmonate (MeJA). MeJA (cis-form, Duchefa M0918) dissolved in dimethyl sulfoxide (DMSO) and was added to the culture medium at a final concentration of 50 μM. Same amount of DMSO alone served as a control. Samples for cDNA-AFLP analysis were taken at 0, 1, 2, 3, 4, 5, 6, 7, 8, 9, 10, 11, 12, 13, 14, 15, 16, 18, 20, 24, 36, 48, and 98 hours after jasmonate addition or at 0, 2, 4, 6, 8, 10, 12, 14, 16, 24, 36, 48, and 98 hours after DMSO addition, respectively. For alkaloid analysis, the samples were taken at 0, 12, 14, 24, 48 and 98 hours. Three replicate shake flasks pooled together yielded the total culture volume of 75 ml. After filtering (Miracloth) under vacuum the cells were lyophilized. Lyophilized cell samples were extracted for GC-MS analysis by a modified method described by Furuya et al. (1971). Cells were weighed and 25 μg of internal standard (5α-cholestan) was added. The samples were made alkaline with ammonia (10% (v/v), 1 ml) and water (2 ml) was added. Alkaloids were extracted by vortexing with 2 ml of dicloromethane. After 30 min the samples were centrifuged (2000 rpm, 10 min) and the lower organic layer was separated and transferred into glass vials. The samples were concentrated to 50 μl and 3 μl aliquots were injected to GC-MS. In some cases (for derivatization of free fatty acids and more polar compounds) the samples were silylated prior to GC-MS analysis. After evaporation to dryness, 25 μl of dichloromethane was added and silylation was performed by N-methyl-N-(trimethylsilyl)-trifluoro-acetamide (Pierce, Rockford, USA) at 120° C. for 20 min.

[4] = tested on: tobacco BY-2 cells; assay: Nicotine alkaloid accumulation in methyl jasmonate elicited BY-2 cells (GC-MS); assay type: cell-based, Nicotiana tabacum
Procedure: as §1

CC/C=C\CC1C(=O)CCC1CC(=O)OC (centres unmarked) [MeJA, methyl jasmonate]
GUS activity ([1]; BY-2 cell line 7, +MeJA, 0 h (Table 4)): 0.8 ± 1.0 units/mg protein/minute
GUS activity ([1]; BY-2 cell line 7, +MeJA, 4 h (Table 4)): 2.0 ± 0.3 units/mg protein/minute
GUS activity ([1]; BY-2 cell line 7, +MeJA, 8 h (Table 4)): 6.4 ± 0.3 units/mg protein/minute
GUS activity ([1]; BY-2 cell line 7, +MeJA, 14 h (Table 4)): 29.1 ± 1.9 units/mg protein/minute
GUS activity ([1]; BY-2 cell line 7, +MeJA, 24 h (Table 4)): 92.2 ± 6.4 units/mg protein/minute
GUS activity ([1]; BY-2 line 7, +MeJA, 0 h (Table 5)): 0.0 ± 0.0 units/mg protein/minute
GUS activity ([1]; BY-2 line 7, +MeJA, 24 h (Table 5)): 399.0 ± 56.4 units/mg protein/minute
GUS activity ([1]; BY-2 line 7, +MeJA, 48 h (Table 5)): 663.0 ± 33.6 units/mg protein/minute
GUS activity ([1]; BY-2 line 7-C330, +MeJA, 0 h): 1.0 ± 0.1 units/mg protein/minute
GUS activity ([1]; BY-2 line 7-C330, +MeJA, 24 h): 276.7 ± 55.9 units/mg protein/minute
GUS activity ([1]; BY-2 line 7-C330, +MeJA, 48 h): 347.8 ± 2.0 units/mg protein/minute
differential transcript tags [2]: 591
Anatabine ([3]; 0 h): 0.038 mg/g DW
Nicotine ([3]; 0 h): 0.008 mg/g DW
Anabasine ([3]; 24 h): 0.099 Mg/g DW
Anatabine ([3]; 24 h): 2.065 mg/g DW
Nicotine ([3]; 24 h): 0.271 mg/g DW
Anabasine ([3]; 48 h): 0.297 Mg/g DW
Anatabine ([3]; 48 h): 3.541 mg/g DW
Nicotine ([3]; 48 h): 0.283 mg/g DW
nicotine, anabasine, anatalline and anatabine content ([4]; BY-2 cells elicited vs control samples): marked increase
highest concentration of anatabine ([4]; BY-2 cells, 50 μM MeJA): 800 µg/g (d.w.)
maximum concentration of nicotine relative to anatabine (dry weight basis) ([4]; BY-2 cells, 50 μM MeJA): 4%
start of anatabine accumulation after elicitation ([4]; BY-2 cells, 50 μM MeJA): 24 h
start of nicotine accumulation after elicitation ([4]; BY-2 cells, 50 μM MeJA): 14 h
time after which anabasine and two anatalline isomers increased ([4]; BY-2 cells, 50 μM MeJA): 48 h
